The source of these data is PubChem BioAssay (NCI).

Among the test systems are BT-549 breast; CCRF-CEM leukemia; COLO 205 colon; HCT-116 colon; HCT-15 colon; IGROV1 ovarian; MCF7 breast; MDA-MB-231 breast; MDA-MB-435; NCI/ADR-RES ovarian; OVCAR-3 ovarian; OVCAR-4 ovarian; OVCAR-5 ovarian; RPMI-8226 leukemia; SF-295 CNS; SF-539 CNS; SK-MEL-5 melanoma; SN12C renal; TK-10 renal; UACC-257 melanoma.
What all share (experiment): NCI-60 cell line screen, 48 h

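All cell lines were grown in 96-well plates and treated with compound for 48 hours. The concentration for full growth arrest is given as TGI.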 Bounds are passed on as bounds.

Turning to `c1ccc(N2N=C3N(c4ccccc4)C2N3c2ccccc2)cc1`, the TGI was more than 100 µM in the test on BT-549 breast; 71.8 µM with CCRF-CEM leukemia; 49.1 µM in the test with COLO 205 colon; more than 100 µM in the test on HCT-116 colon; more than 100 µM with HCT-15 colon; more than 100 µM with IGROV1 ovarian. The TGI in the test on MCF7 breast is more than 100 µM; with MDA-MB-231 breast, more than 100 µM; in the test with MDA-MB-435, 31.6 µM; in the test with NCI/ADR-RES ovarian it was more than 100 µM; with OVCAR-3 ovarian, more than 100 µM; in the test on OVCAR-4 ovarian, more than 100 µM. Besides, the TGI in the test on OVCAR-5 ovarian was more than 100 µM; with RPMI-8226 leukemia, 48.7 µM; with SF-295 CNS, more than 100 µM; in the test with SF-539 CNS, 74.9 µM; in the test on SK-MEL-5 melanoma, 63.4 µM; in the test on SN12C renal it was more than 100 µM. In addition, the TGI was more than 100 µM in the test with TK-10 renal and 55 µM with UACC-257 melanoma.
Consider `CCCCn1c(C)c2c(c1C)C(=O)N(CCN1CCN(c3ccccc3Cl)CC1)C2=O`, for which the TGI was 41.7 µM in the test on BT-549 breast; 75.7 µM in the test on CCRF-CEM leukemia; more than 100 µM with COLO 205 colon; 34.3 µM in the test on HCT-116 colon; more than 100 µM in the test with HCT-15 colon; more than 100 µM in the test on IGROV1 ovarian. The TGI in the test on MCF7 breast was 99 µM; with MDA-MB-231 breast, more than 100 µM; in the test on MDA-MB-435, 90.3 µM; in the test on NCI/ADR-RES ovarian it was more than 100 µM; with OVCAR-3 ovarian, more than 100 µM; in the test on OVCAR-4 ovarian it was more than 100 µM. For the same compound, the TGI with OVCAR-5 ovarian is more than 100 µM; in the test with RPMI-8226 leukemia, 55.1 µM; in the test with SF-295 CNS, more than 100 µM; in the test with SF-539 CNS it was 38 µM; in the test with SK-MEL-5 melanoma, 34.9 µM; in the test on SN12C renal it was 61.3 µM. The values for the TGI in the test with TK-10 renal and with UACC-257 melanoma were more than 100 µM and 74.3 µM, respectively.
